The record followed here is patent US9232799B2, “N-[(het)arylethyl)] pyrazole(thio)carboxamides and their heterosubstituted analogues” (BAYER INTELLECTUAL PROPERTY GMBH, priority 2010, dated 2016).

The test system of data set [1] is Blumeria graminis f.sp. hordei. Put plainly: In vivo preventive test on Blumeria graminis (barley). The following applies: 500 ppm of active ingredient, evaluated 7 days after inoculation. An excerpt: (§1) To test for preventive activity, young plants are sprayed with the preparation of active compound or active compound combination at the stated rate of application.

Data set [2] relates to Venturia inaequalis. Put plainly: In vivo preventive test on Venturia inaequalis (apple scab). Particulars: 100 ppm of active ingredient, evaluated 10 days after inoculation.
Data set [3] deals with Alternaria solani. Put plainly: In vivo preventive test on Alternaria solani (tomato). The following applies: 500 ppm of active ingredient, evaluated 7 days after inoculation. An excerpt:
One day after this treatment, the plants are inoculated with an aqueous spore suspension of Alternaria solani.

The subject of data set [4] is Uromyces appendiculatus. Put plainly: In vivo preventive test on Uromyces appendiculatus (beans). The following applies: 100 ppm of active ingredient, evaluated 10 days after inoculation.
In data set [5] the test system is aflatoxines production. Put plainly: microbe, parasite or virus in culture. The format is cell-based, Aspergillus parasiticus. Particulars: 50 μM.
Data set [6] has as its system Fusarium graminearum. Put plainly: microbe, parasite or virus in culture. Particulars: 50 μM. The format is cell-based.
The nature of data set [7]: logP by HPLC on reversed-phase column (C 18), EEC Directive 79/831 Annex V.A8. The class given is physicochemical. On the procedure:
In table 1, the logP values were determined in accordance with EEC Directive 79/831 Annex V.A8 by HPLC (High Performance Liquid Chromatography) on a reversed-phase column (C 18), using the method described below: Temperature: 40° C.; […]

For data set [8], the system named is Pyrenophora teres. Put plainly: In vivo preventive test on Pyrenophora teres (barley). The following applies: 500 ppm of active ingredient, evaluated 7-9 days after inoculation. From the text:
One day after this treatment, the plants are inoculated with an aqueous spore suspension of Pyrenophora teres.

Data set [9] has as its system Fusarium nivale (var. majus). Put plainly: In vivo preventive test on Fusarium nivale (wheat). Particulars: 500 ppm of active ingredient, evaluated 5 days after inoculation.
Source text: as §1

Data set [10] has as its system Phakopsora pachyrhizi. Put plainly: In vivo protective test on Phakopsora pachyrhizi (soybeans). The following applies: dose 250 ppm of active ingredient, evaluated 11 days after inoculation.
Data set [11] concerns Puccinia triticina. Put plainly: In vivo preventive test on Puccinia triticina (wheat). The following applies: dose 500 ppm of active ingredient, evaluated 8 days after inoculation.
The subject of data set [12] is Botrytis cinerea. Put plainly: In vivo preventive test on Botrytis cinerea (beans). The following applies: preventive, beans, 100 ppm of active ingredient, lesion size 2 days after inoculation. From the text:
To test for preventive activity, young plants are sprayed with the preparation of active compound. After the spray coating has dried on, 2 small pieces of agar covered with growth of Botrytis cinerea are placed on each leaf.

The test system of data set [13] is Septoria tritici. Put plainly: In vivo preventive test on Septoria tritici (wheat). Particulars: 500 ppm of active ingredient, evaluated 21 days after inoculation.
Source text: as §1

The test system of data set [14] is Leptosphaeria nodorum. Put plainly: In vivo preventive test on Leptosphaeria nodorum (wheat). Particulars: 500 ppm of active ingredient, evaluated 7-9 days after inoculation. An excerpt:
One day after this treatment, the plants are inoculated with an aqueous spore suspension of Leptosphaeria nodorum.

Data set [15] deals with Sphaerotheca fuliginea. Put plainly: In vivo preventive test on Sphaerotheca fuliginea (cucumber). The following applies: 500 ppm of active ingredient, evaluated 7 days after inoculation. An excerpt:
One day after this treatment, the plants are inoculated with an aqueous spore suspension of Sphaerotheca fuliginea.

On to `Cn1nc(C(F)F)c(C(=O)N(C[Si](C)(C)c2ccccc2Cl)C2CC2)c1F` [Example 231], for which the Efficacy is given as 100% in data set [1]; 99% in data set [2]; 94% in data set [3]; 100% in data set [4]; 100% in data set [8]; 83% in [9]. The Efficacy is 80% in data set [10]; 100% in [11]; 99% in data set [12]; 100% in data set [13]; 100% in data set [14]; 100% in [15]. In data set [5], the “% Inhibition of Aflatoxin at 50 μM” value worked out at 100%. Moreover, in data set [6], the “% Inhibition of fungal growth at 50 μM” value turned out to be 100%. Moreover, the logP (usually a log measure of how a compound divides between an organic and an aqueous phase) in data set [7] turned out to be 4.13.
